Laboratory results: patent US6414030B1, “Use of benzenesulfonyl(thio)ureas for the treatment and prophylaxis of dysfunctions of the autonomous nervous system and use of benzenesulfonyl(thio)ureas in combination with beta-receptors blockers” (Aventis Pharma Deutschland, GmbH, priority 1998, dated 2002)
Marks after values point to notes of the source that are not given here.

Experiments:
[1] = system: chloroform-induced ventricular fibrillation in the mouse; test: Chloroform-induced ventricular fibrillation in the mouse (effect on vagal dysfunction), without and with atropine; assay type: in vivo; details: n = 10, untreated control 100%; for Proportion of fibrillation (in %) with atropine (1 mg/kg i.v.): plus atropine 1 mg/kg i.v.
Description: The substances were investigated using the model of chloroform-induced ventricular fibrillation in the mouse (see J. W. Lawson, Antiarrhythmic activity of some isoquinoline derivatives determined by a rapid screening procedure in the mouse; J. Pharmacol. Exp. Ther. 1968, 160, 22-31). […] After 30 minutes, the mouse was anesthetized with chloroform in a beaker. As soon as, in deep anesthesia, respiratory arrest had occurred (toxic anesthesia stage), the thorax of the animal was opened using a pair of scissors and the heartbeat was inspected visually. Here, it is possible to determine on first sight whether the heart is beating, fibrillating or arrested. The respiratory arrest triggered by chloroform leads, via absolute anoxia (lack of oxygen) in combination with a direct stimulating effect of chloroform on the sympathetic nervous system, to a potent stimulation of the sympathicus, which in turn in combination with the energy deficit in the heart caused by lack of oxygen results in fatal arrhythmia, i.e. ventricular fibrillation. This toxic chloroform anesthesia led to ventricular fibrillation in 100% of the untreated mice (control).

[2] = system: chloroform-induced ventricular fibrillation in the mouse; test: Chloroform-induced ventricular fibrillation in the mouse: combinations of compounds of the formula I with beta-receptor blockers; assay type: in vivo; details: n = 30, untreated control 100%
Description: The substances were investigated using the model of chloroform-induced ventricular fibrillation in the mouse (see J. W. Lawson, Antiarrhythmic activity of some isoquinoline derivatives determined by a rapid screening procedure in the mouse; J. Pharmacol. Exp. Ther. 1968, 160, 22-31). The test substance was dissolved in a mixture of dimethyl sulfoxide (DMSO) and 10% strength sodium bicarbonate solution and administered intraperitoneally (i.p.). After 30 minutes, the mouse was anesthetized with chloroform in a beaker. As soon as, in deep anesthesia, respiratory arrest had occurred (toxic anesthesia stage), the thorax of the animal was opened using a pair of scissors and the heartbeat was inspected visually. Here, it is possible to determine on first sight whether the heart is beating, fibrillating or arrested. The respiratory arrest triggered by chloroform leads, via absolute anoxia (lack of oxygen) in combination with a direct stimulating effect of chloroform on the sympathetic nervous system, to a potent stimulation of the sympathicus, which in turn in combination with the energy deficit in the heart caused by lack of oxygen results in fatal arrhythmia, i.e. ventricular fibrillation. This toxic chloroform anesthesia led to ventricular fibrillation in 100% of the untreated mice (control).
The active compounds were administered i.v. (intravenously) or i.p. (intraperitoneally). In one experiment, 10 mg/kg of 1-[[5-[2-(5-chloro-2-methoxybenzamido)ethyl]-2-methoxyphenyl]sulfonyl]-3-methylthiourea sodium salt (see Example 4; dissolved in DMSO/10% strength sodium bicarbonate solution) were combined with 0.3 mg/kg of propanolol (dissolved in distilled water), a standard beta-blocker. […] The proportion of fibrillation could be lowered further than with the individual substances, in a statistically significant manner. For comparison, a 10 times higher dose of 3 mg/kg of propanolol was used. […] In another experiment, 3 mg/kg of 1-[[5-[2-(5-tert-butyl-2-methoxybenzamido)ethyl]-2-methoxyphenyl]sulfonyl]-3-methylthiourea (Example 1) and 3 mg/kg of atenolol were combined in an analogous manner.

[3] = 3 mg/kg i.p., chloroform anesthesia after 30 minutes

In the case of `C[N+](C)(C)CCOC(N)=O` [carbachol, reference compound], the “Proportion of fibrillation (in %) without atropine” value ([1]; 60 μg/kg i.v.) is reported as 60%# and the “Proportion of fibrillation (in %) with atropine (1 mg/kg i.v.)” value ([1]; 60 μg/kg i.v.) is reported as 100%*.
With `CNC(=S)NS(=O)(=O)c1cc(CCNC(=O)c2cc(C(C)(C)C)ccc2OC)ccc1OC` [Example 1, 1-[[5-[2-(5-tert-Butyl-2-methoxybenzamido)ethyl]-2-methoxyphenyl]sulfonyl]-3-methylthiourea] the “Proportion of fibrillation (in %) without atropine” value [1, 3] was 30%#, the “Proportion of fibrillation (in %) with atropine (1 mg/kg i.v.)” value ([1]; 3 mg/kg i.p.) was 90%* and the “Proportion of fibrillation in %” value ([2]; single substance 3 mg/kg i.p.) was 53%*.
For `CC(C)NCC(O)COc1cccc2ccccc12` (stereo not drawn) [propranolol], the “Proportion of fibrillation in %” value ([2]; single substance 0.3 mg/kg i.v.) was 37%* and the “Proportion of fibrillation in %” value ([2]; single substance 3 mg/kg i.v.) was 17%*.
`CC(C)NCC(O)COc1ccc(CC(N)=O)cc1` (stereo not drawn) [atenolol] was tested, and the “Proportion of fibrillation in %” value ([2]; single substance 3 mg/kg i.v.) was 48%*.
With `CNC(=S)NS(=O)(=O)c1cc(CCNC(=O)c2cc(Cl)ccc2OC)ccc1OCCOC` [Example 5, 1-[[5-[2-(5-Chloro-2-methoxybenzamido)ethyl]-2-(2-methoxyethoxy)phenyl]sulfonyl]-3-methylthiourea] the “Proportion of fibrillation (in %) without atropine” value ([1]; 10 mg/kg i.p.) was 60%# and the “Proportion of fibrillation (in %) with atropine (1 mg/kg i.v.)” value ([1]; 10 mg/kg i.p.) was 100%*.
In the case of `CNC(=S)NS(=O)(=O)c1cc(CCNC(=O)c2cc(C(C)C)ccc2OC)ccc1OC` [Example 3, 1-[[5-[2-(5-lsopropyl-2-methoxybenzamido)ethyl]-2-methoxyphenyl]sulfonyl]-3-methylthiourea], the “Proportion of fibrillation (in %) without atropine” value [1, 3] is reported as 60%#.
`CNC(=O)NS(=O)(=O)c1cc(CCNC(=O)c2cc(C(C)(C)C)ccc2OC)ccc1OC` [Example 2, 1-[[5-[2-(5-tert-Butyl-2-methoxybenzamido)ethyl]-2-methoxyphenyl]sulfonyl]-3-methylurea] was tested, and the “Proportion of fibrillation (in %) without atropine” value ([1]; 1 mg/kg i.p.) was 60%# and the “Proportion of fibrillation (in %) with atropine (1 mg/kg i.v.)” value ([1]; 1 mg/kg i.p.) was 100%*.
For `CNC(=S)NS(=O)(=O)c1cc(CCNC(=O)c2cc(Cl)ccc2OC)ccc1OC.[Na]` [1-[[5-[2-(5-chloro-2-methoxybenzamido)ethyl]-2-methoxyphenyl]sulfonyl]-3-methylthiourea sodium salt], the “Proportion of fibrillation (in %) without atropine” value ([1]; 10 mg/kg i.p.) was 50%#, the “Proportion of fibrillation (in %) with atropine (1 mg/kg i.v.)” value ([1]; 10 mg/kg i.p.) was 90%* and the “Proportion of fibrillation in %” value ([2]; single substance 10 mg/kg i.v.) was 50%*.
With `CNC(=O)Oc1ccc2c(c1)[C@]1(C)CCN(C)[C@@H]1N2C` [physostigmine, reference compound] the “Proportion of fibrillation (in %) without atropine” value ([1]; 1 mg/kg s.c.) was 70%# and the “Proportion of fibrillation (in %) with atropine (1 mg/kg i.v.)” value ([1]; 1 mg/kg s.c.) was 100%*.
